Data on five compounds can be found in patent publication US20160166560A1, “Urea Compounds and Their Use as FAAH Enzyme Inhibitors” (BIAL-PORTELA & Cª, S.A., priority 2013, published 2016).

In data set [1] the test system is CYPs. The experiment in a line: CYPs metabolic stability assay in HLM (human liver microsomes). It is filed as in vitro ADME. The settings on record: HLM 1 mg/ml protein, compound 5 μM, 60 min, 37° C.; for Control (% remain): absence of NADPH; for CYP+ (% remain): with NADPH 1 mM. In a few lines: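 Test compound at 5 μM incubated 60 min at 37 °C with HLM (1 mg/ml protein) in 50 mM K-phosphate buffer, 5 mM MgCl2, with and without 1 mM NADPH, after 5 min pre-incubation. Reaction stopped with acetonitrile, added before compound at T0; remaining compound measured by HPLC-MS, duplicates.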

Data set [2] can be described thus: Solubility assay in purified water. The conditions noted are these: pH 5.7, thermodynamic from solid; purified water pH=5.6-5.8, stirring 2 h, room temperature, HPLC. The class given is physicochemical. On the procedure:
A saturated solution was prepared by adding the test compound in excess to 1 mL of purified water (pH=5.6-5.8) followed by stirring of the mixture for 2 h at room temperature. Thereupon, the un-dissolved material was removed by filtration and the amount of test compound in the filtrate was quantified by HPLC using a calibration curve.

The target of data set [3] is T1, FAAH (Mus musculus, UniProt O08914).
T1 sequence (O08914 1-579): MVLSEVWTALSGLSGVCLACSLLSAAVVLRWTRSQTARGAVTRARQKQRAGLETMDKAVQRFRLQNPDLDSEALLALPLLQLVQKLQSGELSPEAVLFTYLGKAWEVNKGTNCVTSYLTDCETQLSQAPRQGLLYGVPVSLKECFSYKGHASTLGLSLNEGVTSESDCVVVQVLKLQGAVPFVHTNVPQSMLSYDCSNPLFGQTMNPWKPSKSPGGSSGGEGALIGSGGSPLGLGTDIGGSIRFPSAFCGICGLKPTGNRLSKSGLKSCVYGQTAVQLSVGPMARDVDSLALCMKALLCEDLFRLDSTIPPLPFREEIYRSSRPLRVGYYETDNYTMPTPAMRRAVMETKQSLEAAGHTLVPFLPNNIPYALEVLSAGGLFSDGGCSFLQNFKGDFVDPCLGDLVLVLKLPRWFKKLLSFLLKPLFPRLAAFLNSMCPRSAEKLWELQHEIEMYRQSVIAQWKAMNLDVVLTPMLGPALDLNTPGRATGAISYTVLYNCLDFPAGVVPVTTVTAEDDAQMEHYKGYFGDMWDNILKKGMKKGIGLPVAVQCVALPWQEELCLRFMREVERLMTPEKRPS
The experiment in a line: In vitro/ex vivo FAAH activity determination in brain after intra-tracheal instillation. More on the design: Liver and brain fragments were removed and processed for enzymatic activity determination; from tissue; species or system male NMRI mice. The settings on record: remaining enzymatic activity vs controls, 1 mg/kg intra-tracheal instillation, sacrificed after 8 h. In a few lines:
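Male NMRI mice dosed 1 mg/kg by intra-tracheal instillation under anaesthesia; brain and liver taken at 8 h. Homogenates (15 μg brain, 5 μg liver protein) pre-incubated 15 min at 37 °C, then 12 min with 2 μM [3H]-AEA, pH 7.6; 3H-ethanolamine counted, activity as % of controls.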

In data set [4] the target is T1, FAAH. The experiment in a line: In vitro/ex vivo FAAH activity determination in liver after intra-tracheal instillation. The settings on record: remaining enzymatic activity vs controls, 1 mg/kg intra-tracheal instillation, sacrificed after 8 h. More on the design: Liver and brain fragments were removed and processed for enzymatic activity determination; from tissue; host or cells: mouse liver fragment homogenate; species or system male NMRI mice.

Structures are written as SMILES. Where a name gives a salt, the structure may show the parent alone. Where only a bound is given, the exact number is not on record here.

For the compound `COc1ccc(CN2CCC(N(C)C(=O)n3cnc(-c4cccc(C(N)=O)c4)c3)CC2)cc1` [Example 33, 4-(3-carbamoylphenyl)-N-(1-(4-methoxybenzyl)piperidin-4-yl)-N-methyl-1H-imidazole-1-carboxamide hydrochloride], in data set [1], the “Control (% remain)” value came to 112.2 % remain and the “CYP+ (% remain)” value is listed as 70.4 % remain. In data set [2], the solubility at 2 h is > 14.9 mg/mL. Also, the “FAAH Activity - Brain itc (% C)” value in data set [3] amounted to 102 % C. Also, the “FAAH Activity - Liver itc (% C)” value in data set [4] is given as 3.4 % C.
For `COc1cccc(CN2CCC(N(C)C(=O)n3cnc(-c4cccc(NC(N)=O)c4)c3)CC2)c1.Cl` [Example 17, N-(1-(3-methoxybenzyl)piperidin-4-yl)-N-methyl-4-(3-ureidophenyl)-1 H-imidazole-1-carboxamide hydrochloride] the same measures were 103.4 % remain, 21.4 % remain, 14.1 mg/mL, 91.9 % C and 4.2 % C.
For `COc1ccccc1N1CCC(N(C)C(=O)n2cnc(-c3cccc(C(N)=O)c3)c2)CC1` [Example 34, 4-(3-carbamoylphenyl)-N-(1-(2-methoxyphenyl)piperidin-4-yl)-N-methyl-1 H-imidazole-1-carboxamide hydrochloride] the same measures were 105.4 % remain, 9.1 % remain, > 14.7 mg/mL, 78.7 % C and 3.3 % C.
As to `CN(C(=O)n1cnc(-c2cccc(C(N)=O)c2)c1)C1CCN(c2ccc(O)cc2)CC1` [Example 35, 4-(3-carbamoylphenyl)-N-(1-(4-hydroxyphenyl)piperidin-4-yl)-N-methyl-1H-imidazole-1-carboxamide hydrochloride], in data set [1], the “Control (% remain)” value stood at 73.8 % remain and the “CYP+ (% remain)” value is 81.0 % remain. Moreover, the solubility at 2 h in data set [2] came to 10.2 mg/mL. The “FAAH Activity - Brain itc (% C)” value in data set [3] stood at 96.6 % C. Moreover, in data set [4], the “FAAH Activity - Liver itc (% C)” value was determined as 4.3 % C.
For `COc1cccc(CN2CCC(N(C)C(=O)n3cnc(-c4cccc(NS(N)(=O)=O)c4)c3)CC2)c1` [Example 3, N-(1-(3-methoxybenzyl)piperidin-4-yl)-N-methyl-4-(3-(sulfamoylamino)phenyl)-1H-imidazole-1-carboxamide hydrochloride] the same measures were 103.5 % remain, 17.5 % remain, 7.7 mg/mL, 96.0 % C and 5.3 % C.
